Data taken from US5696089A, “Histidine substituted growth hormone releasing factor analogs” (Roche Vitamins Inc., priority 1995, dated 1997).
Where a SMILES comes first, the peptide text is derived from it. Where no end group is shown, it is not given here. The star is where a group is joined. Desaminohistidyl = O=C(CCc1c[nH]cn1)*

Columns and labels:
rat pituitary cells = assay type: cell-based
Protocol: The biological activity of the novel peptides were compared with that of a synthetic standard of the natural sequence of GRF(1-44)-NH2 which was isolated from a human pancreatic tumor of an individual suffering from acromegaly (Salk Institute standard hp-GRF-NH2 (NL-A-10)). The assay for biological activity, which is based on the ability to stimulate production of growth hormone in rat pituitary cells in tissue culture, was performed in the following manner. Pituitaries from 30-40 male Sprague-Dawley rats (175 g) were removed aseptically after decapitation. The anterior lobes were collected, washed 3 times in sterile Hepes buffer (0.025M)(pH 7.35) and dispersed at 37° C. in 20-30 ml Hepes buffer (pH 7.35) containing collagenasa (4 mg per ml) and Dispase (Protease grande II, 2 mg per ml). After gentle 80 min. vortexing and trituration by Pasteur pipette, the dispersed cells were separated by centrifugation (150×g, 4 min.) and re-suspended in Hepes buffer containing neuraminidase (4 μg/ml), and 200 μg/ml ethylenediaminetetraacetic acid (EDTA) disodium salt pH 7.35, for 10 min. The cells were washed twice with plating medium and plated on multiwell-plates (1.5×10^5 cells per ml) using the following defined medium: F-12/DMEM/BGJ(6:3:1) (Gibco: 430-1700/430-1600/320-2591) with 2 g BSA/1., 2.38 g Hepes/1., 50 mg Gentamycin/1 (Schering Co.). The medium in each well was supplemented either with the novel peptide or natural GRF(1-44)-NH2 at concentrations ranging from 3.1 to 200 fmol. per ml. of medium. Control wells contained no supplement. Plating was done with this medium added with 2% fetal calf serum to ensure rapid fixation of the cells. On the fourth day the cells were washed twice with the defined medium without fetal calf serum. Finally 900 μl of defined medium was added to each well plus 100 μl of the same medium containing each individual treatment, in triplicate. After 3 hours of incubation the medium was collected and diluted as required to conduct radioimmuno- assays (RIAs) for rat growth hormone. RIAs were conducted using Sinha's anti-murine GH immune serum and procedures according to the National Pituitary Agency using protein A to precipitate antibody antigen complex.

[1] = In vitro plasma stability by porcine plasma incubation at 37° C.; assay type: in vitro ADME; settings: pooled porcine plasma, 100 μg/ml, HPLC after SEP-PAK extraction
Protocol: In vitro plasma stability of GRF analogs were determined by porcine plasma incubation at 37° C. Pooled porcine plasma was collected from control pigs and stored at -20° C. GRF analogs of interest were prepared as discussed above. The plasma was first thawed and centrifuged at 3000 rpm for 20 minutes at 4° C. The plasma was then placed in a shaker bath at a temperature of 37° C. and allowed to equilibrate for 10 minutes. GRF analogs were dissolved in water containing 0.1% TFA at a concentration of 2 μg/μl. As soon as the initial equilibration was completed, an analog was added into the plasma sample to a final concentration of 100 μg/ml. Immediately after the addition of a GRF analog, a 1 ml aliquot of plasma sample was withdrawn and acidified with 0.2 ml of 0.1M TFA/H2 O and kept at 0° C. for later solid phase extraction. The remaining plasma samples were incubated in the water bath and 1 ml aliquots were withdrawn at different time periods and acidified by the same procedure described above.
Plasma samples were extracted with SEP-PAK octadecyl columns (Waters Associates). The column cartridge was washed with 2 ml 80% acetic acid followed by 4 ml of 0.01M TFA. After the plasma sample was loaded, the column was washed with 3 ml of 0.1M TFA to remove the excess unbound biological material. The solvent remaining in the cartridges was forced out by two passes of air from a 10 ml syringe. The bound material was then eluted with 80% acetic acid and 3 ml eluate was collected for chromatographic analysis. Two high performance liquid chromatography systems were used. System A: Instrumentation--Perkin-Elmer Series 4 liquid chromatography microprocessor-controlled solvent delivery system, Waters intelligent sample processor (WISP) model 710 (Waters Associates), and a Hewlett-Packard 1040M Diode Assay Detection System. Column--Delta Pak C18, 3.5×150 mm, 5 μm spherical (Nihon Waters Ltd.). Mobile phase-(A) 0.1% TFA in H2 O, (B) 0.1% TFA in 95% acetonitrile and 5% H2 O. Gradient was 34-50% (B) in 60 minutes, flow rate 1 ml/minute, and the detection was at 215 nm. System B: Instrumentation--Waters 600 multi-solvent delivery system, WISP model 712 and LDC spectromonitor III. Column--Vydac 201TP54, C18 4.6×250 mm, 10 μm (The Separations Group). Mobile phase--same as in System A. Gradient max 30% (B) isocratic for 10 minutes, followed by 30-50% (B) gradient for 60 minutes, flow rate was 1 ml/minute, and the detection was at 215 nm. Amino acid analysis was done as described above. Results of plasma half life are found in Table 2.

Half Life (t1/2) [1] [h]	Compound	Potency of GRF Analogs Relative to GRF(1-44)-NH2 (rat pituitary cells)
1	HVDAIFTNSYRKVLAQLSARKLLQDILSRQQG [[His^1,Val^2,Ala^15,Leu^27]-GRF(1-32)-OH]	2.40
1	HVDAIFTNSYRKVLAQLSARKLLQDIMSR-NH2 [[His^1,Val^2,Ala^15]-GRF(1-29)-NH2]	2.58
1.17	YVDAIFTNSYRKVLAQLSARKLLQDILSRQQG [[Val^2,Ala^15,Leu^27]-GRF(1-32)-OH]	

Second part, the compound before the results:

Compound	Half Life (t1/2) [1] [h]	Potency of GRF Analogs Relative to GRF(1-44)-NH2 (rat pituitary cells)
CC[C@H](C)[C@H](NC(=O)[C@H](C)NC(=O)[C@H](CC(=O)O)NC(=O)[C@H](C)NC(=O)[C@@H](N)Cc1ccc(O)cc1)C(=O)N[C@@H](Cc1ccccc1)C(=O)N[C@H](C(=O)N[C@@H](CC(N)=O)C(=O)N[C@@H](CO)C(=O)N[C@@H](Cc1ccc(O)cc1)C(=O)N[C@@H](CCCNC(=N)N)C(=O)N[C@@H](CCCCN)C(=O)N[C@H](C(=O)N[C@@H](CC(C)C)C(=O)NCC(=O)N[C@@H](CCC(N)=O)C(=O)N[C@@H](CC(C)C)C(=O)N[C@@H](CO)C(=O)N[C@@H](C)C(=O)N[C@@H](CCCNC(=N)N)C(=O)N[C@@H](CCCCN)C(=O)N[C@@H](CC(C)C)C(=O)N[C@@H](CC(C)C)C(=O)N[C@@H](CCC(N)=O)C(=O)N[C@@H](CC(=O)O)C(=O)N[C@H](C(=O)N[C@@H](CCSC)C(=O)N[C@@H](CO)C(=O)N[C@@H](CCCNC(=N)N)C(N)=O)[C@@H](C)CC)C(C)C)[C@@H](C)O [GRF(1-29)-NH2, reference compound]	0.217	0.71
CC[C@H](C)[C@H](NC(=O)[C@H](C)NC(=O)[C@H](CC(=O)O)NC(=O)[C@H](C)NC(=O)[C@@H](N)Cc1ccc(O)cc1)C(=O)N[C@@H](Cc1ccccc1)C(=O)N[C@H](C(=O)N[C@@H](CC(N)=O)C(=O)N[C@@H](CO)C(=O)N[C@@H](Cc1ccc(O)cc1)C(=O)N[C@@H](CCCNC(=N)N)C(=O)N[C@@H](CCCCN)C(=O)N[C@H](C(=O)N[C@@H](CC(C)C)C(=O)NCC(=O)N[C@@H](CCC(N)=O)C(=O)N[C@@H](CC(C)C)C(=O)N[C@@H](CO)C(=O)N[C@@H](C)C(=O)N[C@@H](CCCNC(=N)N)C(=O)N[C@@H](CCCCN)C(=O)N[C@@H](CC(C)C)C(=O)N[C@@H](CC(C)C)C(=O)N[C@@H](CCC(N)=O)C(=O)N[C@@H](CC(=O)O)C(=O)N[C@H](C(=O)N[C@@H](CCSC)C(=O)N[C@@H](CO)C(=O)N[C@@H](CCCNC(=N)N)C(=O)N[C@@H](CCC(N)=O)C(=O)N[C@@H](CCC(N)=O)C(=O)NCC(=O)N[C@@H](CCC(=O)O)C(=O)N[C@@H](CO)C(=O)N[C@@H](CC(N)=O)C(=O)N[C@@H](CCC(N)=O)C(=O)N[C@@H](CCC(=O)O)C(=O)N[C@@H](CCCNC(=N)N)C(=O)NCC(=O)N[C@@H](C)C(=O)N[C@@H](CCCNC(=N)N)C(=O)N[C@@H](C)C(=O)N[C@@H](CCCNC(=N)N)C(=O)N[C@@H](CC(C)C)C(N)=O)[C@@H](C)CC)C(C)C)[C@@H](C)O [GRF(1-44)-NH2, reference compound]		1.00
CC[C@H](C)[C@H](NC(=O)[C@H](C)NC(=O)[C@H](CC(=O)O)NC(=O)[C@@H](NC(=O)CCc1c[nH]cn1)C(C)C)C(=O)N[C@@H](Cc1ccccc1)C(=O)N[C@H](C(=O)N[C@@H](CC(N)=O)C(=O)N[C@@H](CO)C(=O)N[C@@H](Cc1ccc(O)cc1)C(=O)N[C@@H](CCCNC(=N)N)C(=O)N[C@@H](CCCCN)C(=O)N[C@H](C(=O)N[C@@H](CC(C)C)C(=O)N[C@@H](C)C(=O)N[C@@H](CCC(N)=O)C(=O)N[C@@H](CC(C)C)C(=O)N[C@@H](CO)C(=O)N[C@@H](C)C(=O)N[C@@H](CCCNC(=N)N)C(=O)N[C@@H](CCCCN)C(=O)N[C@@H](CC(C)C)C(=O)N[C@@H](CC(C)C)C(=O)N[C@@H](CCC(N)=O)C(=O)N[C@@H](CC(=O)O)C(=O)N[C@H](C(=O)N[C@@H](CCSC)C(=O)N[C@@H](CO)C(=O)N[C@@H](CCCNC(=N)N)C(N)=O)[C@@H](C)CC)C(C)C)[C@@H](C)O [[desNH2 His^1,Val^2,Ala^15]-GRF(1-29)-NH2] (Desaminohistidyl-VDAIFTNSYRKVLAQLSARKLLQDIMSR-NH2)		1.21
HIDAIFTNSYRKVLAQLSARKLLQDIMSR-NH2 [[His^1,Ile^2,Ala^15]-GRF(1-29)-NH2]		1.24
YADAIFTNSYRKVLAQLSARKLLQDIMSR-NH2 [[Ala^15]-GRF(1-29)-NH2, reference compound]	0.283	
